Measurements reported in patent US20250276955A1, “CORONAVIRUS MAIN PROTEASE INHIBITORS AND METHODS USING SAME” (Baylor College of Medicine, priority 2021, published 2025).
≈ marks a conversion by molar mass, not a printed value. Entries after “also recorded” stand apart in the source; their conditions may differ. Read-outs that look alike come from different tables or passages of the source.

Columns and labels:
SARS-COV-2 M^pro-His6 = SARS-COV-2 M^pro-His6 (Severe acute respiratory syndrome coronavirus 2, UniProt P0DTD1); experiment: biochemical; type: biochemical; details: 25 nM enzyme, 15 μM fluorescent peptide, Morrison equation; Inactive = less than 50% inhibition at 25 μM compound; read-out: M^pro-His Ki
[1] = target: SARS-COV-2 M^pro (authentic N- and C-termini) (Severe acute respiratory syndrome coronavirus 2, UniProt P0DTD1); experiment: biochemical; type: biochemical
[2] = target: SARS-CoV-2 main protease (M^pro) (Severe acute respiratory syndrome coronavirus 2, UniProt P0DTD1); experiment: Protein thermal shift stability assay (SYPRO Orange); type: binding
HOVPro-Gii.4 = experiment: Thermal shift, HOVPro-Gii.4; type: binding
Human Cathepsin B = target: T1, Human Cathepsin B (Homo sapiens, UniProt P07858); experiment: Cathepsin B assay; type: biochemical
T1 construct: purchased BPS Bioscience 79590
Procedure: (§1) A kit from BPS Bioscience (#79590) was used with adjustments to the manufacturer's protocol as follows: The activated enzyme was diluted 250-fold just before use, and the reaction was run at RT in black 96 half-area plates in a total reaction volume of 50 uL containing 0.01% Tween-20. Instead of measuring endpoints at 60 min the increase in fluorescence (Ex 360 nm, Em 460 nm) per second (RFU/s) was obtained from linear progress curves over 10 min. Fractional activities were calculated from reactions with no inhibitors. E-64 was used as a positive control.

renin = target: T2, renin (Homo sapiens, UniProt P00797); experiment: Renin assay; type: biochemical; details: read-out: estimated Kiapp, renin
T2 construct: purchased BPS Bioscience 80211
T2 sequence (P00797 67-406): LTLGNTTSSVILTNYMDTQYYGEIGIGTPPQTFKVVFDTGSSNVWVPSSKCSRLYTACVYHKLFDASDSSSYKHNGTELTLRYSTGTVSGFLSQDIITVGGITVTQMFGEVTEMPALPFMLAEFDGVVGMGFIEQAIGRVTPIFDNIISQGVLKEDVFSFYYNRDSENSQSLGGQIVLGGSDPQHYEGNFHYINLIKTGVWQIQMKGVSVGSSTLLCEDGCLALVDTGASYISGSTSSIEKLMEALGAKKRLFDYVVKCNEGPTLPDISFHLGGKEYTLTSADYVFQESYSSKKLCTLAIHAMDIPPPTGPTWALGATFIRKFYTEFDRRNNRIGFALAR
Procedure: as §1, with “(#80211)” for “(#79590)”, “The” for “The activated enzyme was diluted 250-fold just before use, and the”, “30” for “60”, “490” for “360”, “520” for “460”, “Aliskiren” for “E-64”

[3] = Metabolic stability in human liver microsomes; type: in vitro ADME
Procedure, shortened: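 Mouse or human liver microsomal incubations sampled in duplicate at 0, 30 and 60 min, quenched with equal volume ice-cold methanol. Supernatant analysed by UHPLC-Orbitrap MS, C18 column at 40° C, positive ESI, m/z 80–1,200.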

[4] = Plasma stability assay, human plasma; type: in vitro ADME; details: 10 μM, 37° C., after 2 h incubation
Procedure: (§2) Compound CDD-1713 and CDD-1976 were incubated in human and mouse plasma respectively at a concentration of 10 μM in duplicate (n=2) at 37° C. At time-points of 0, 30, 60 and 120 min, 15 μL of sample were taken out and the reactions terminated by adding 75 μL of ice-cold methanol. The reaction mixtures were then vortexed for 30 sec and centrifuged at rcf 15,000 for 15 min. Following centrifugation, 3 μL of the supernatant was analyzed using UHPLC-Q Exactive Orbitrap MS. The percentage of test compound remaining at the individual time points relative to the 0 min sample was then determined.

[5] = Plasma stability assay, mouse plasma; type: in vitro ADME; details: 10 μM, 37° C., after 2 h incubation
Procedure: as §2

HepG2 cells = experiment: HepG2 cytotoxicity assay (XTT)
[6] = Apparent solubility in PBS buffer; details: PBS buffer with 2% DMSO, aqueous buffer, kinetic from dmso stock

Work on `COc1cc(-c2cccc3[nH]ncc23)cc(C=O)c1OCC(=O)N(C)C` [CDD-1713, 2-(2-formyl-4-(1H-indazol-4-yl)-6-methoxyphenoxy)-N,N-dimethylacetamide] yielded a Ki (SARS-COV-2 M^pro-His6) of 44.8 ± 2.9 nM, a Ki ([1]; 25 nM enzyme, 15 μM fluorescent peptide, Morrison equation, Inactive = less than 50% inhibition at 25 μM compound, read-out: M^pro Ki) of 64.8 ± 4.9 nM and a Ki ([1]; Morrison equation, read-out: apparent Ki against M^pro) of 64.8 nM. For the same compound, the Ki ([1]; Table 5, read-out: Ki,app) was 64.8 nM, the Ki ([1]; read-out: Ki, app towards SARS-CoV-2 M^pro, athentic termini, authentic termini) was 64.8 nM and the “stabilization of M^pro in thermal shift assay (in words)” value [2] was “stabilized; also recorded: concentration-dependent stabilization”. The “ΔTm of Mpro at 50 μM compound conc.” value ([2]; 50 μM compound, […]) was 2.99 °C, the “ΔTm of HOVPro-Gii.4 at 50 μM compound conc.” value (HOVPro-Gii.4) was −0.73 °C and the “Human Cathepsin B, Fractional Remaining Activity” value (Human Cathepsin B) was 0.97. For the same compound, the Ki (renin) was 53000 nM, the “HLM t1/2” value ([3]; Table 4) was 15.3 min and the microsomal CLint at 2 μM ([3]; human, liver microsomes) was 90.6 µL/min/mg. For the same compound, the “metabolic stability in human liver microsomes (in words)” value ([3]; human, microsomes) was “metabolically labile”, the “compound remaining in human plasma” value [4] was 80% and the “compound remaining in mouse plasma” value [5] was 80%. The “cytotoxicity in HepG2 cells (in words)” value (HepG2 cells; 100 μM) was “no obvious cytotoxicity”, the IC50 (HepG2 cells; Homo sapiens, HepG2, 24 h, read-out: HepG2 cell viability IC50) was > 100000 nM and the solubility [6] was 157 µM (≈ 55.4 µg/mL).
